Tests used:
[1] = tested on: primary human total T-cells; assay: T-cell activation, IL-2 secretion, Biological Example 2; type: cell-based; conditions: 48 hours, fold change over baseline; for fold induction at 0.3 µM: 0.3 μM inhibitor; for fold induction at 1 µM: 1 μM inhibitor; for fold induction at 3 µM: 3 μM inhibitor
Cbl-b [2] = target: T1, Cbl-b (Homo sapiens (Human), UniProt Q13191); assay: Cbl-b displacement assay (Cbl-b inhibition assay), Biological Example 8; type: binding; conditions: 0.125 nM Cbl-b final concentration (Low), Table 4; read-out: Cbl-b IC50 (Low)
Experimental: (§1) Candidate compounds were evaluated for their ability to bind and inhibit Cbl-b, an E3 ubiquitin-protein ligase, as evidenced by their ability to displace a fluorophore-labeled probe bound to Cbl-b.
(§2) The ability of candidate compounds to displace a known inhibitor and thereby inhibit Cbl-b activity was measured by monitoring the interaction of Cbl-b with a fluorophore-labeled probe in the presence of the candidate compound. A truncated variant of Cbl-b (UniProt number Q13191) containing residues 36-427 and an Avitag at its N-terminus was co-expressed with BirA biotin ligase and purified using a standard protocol (see Dou et al., Nature Structural and Molecular Biology 8: 982-987, 2013; Avidity LLC).
Fluorescently-labeled inhibitor probe was synthesized and tagged with BODIPY FL. Cbl-b displacement assays were performed in a 384-well plate at room temperature in a […] by pre-incubating 0.5 nM Cbl-b or 0.125 nM Cbl-b (final concentration, indicated as “High” and “Low,” respectively) in an assay buffer containing 20 mM HEPES pH 7.5, 150 mM NaCl, 0.01% Triton X-100, 0.01% BSA, and 0.5 mM TCEP in the presence of a candidate compound in 1% DMSO (final concentration) for 1 hour. After incubation in the presence of the candidate compound, the plate was incubated for an additional one hour in the presence of an approximate EC40 binding saturation consisting of 150 nM fluorescently-labeled inhibitor probe and 2 nM Streptavidin-Terbium (Cisbio) (final concentrations). Following the one hour incubation, the plates were read for TR-FRET signal at […] using an Envision plate reader (Perkin Elmer).
(§3) The resulting data for the Cbl-b activity assays were analyzed using standard methods to determine the IC50 values for the tested compounds.

Cbl-b [3] = target: T1, Cbl-b; assay: Cbl-b displacement assay (Cbl-b inhibition assay), Biological Example 1; type: binding
Procedure, shortened: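 Avitag-biotinylated human Cbl-b (residues 36–427) at 0.5 nM ("High") or 0.125 nM ("Low") pre-incubated 1 h with compound (1% DMSO) in HEPES pH 7.5/NaCl/Triton/BSA/TCEP, RT. Then 1 h with 150 nM BODIPY FL inhibitor probe (~EC40) plus 2 nM streptavidin-Tb. TR-FRET read at 520/620 nm for probe displacement.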

Cbl-b [4] = target: T1, Cbl-b; assay: Cbl-b displacement assay (Cbl-b inhibition assay), Biological Example 12; type: binding; conditions: 0.125 nM Cbl-b final concentration (Low), Table 7; read-out: Cbl-b IC50 (Low)
Experimental: as §1, §2
Fluorescently-labeled inhibitor probe was synthesized and tagged with BODIPY FL. Cbl-b displacement assays were performed in a 384-well plate at room temperature in a […] by pre-incubating 0.5 nM Cbl-b or 0.125 nM Cbl-b (final concentration, indicated as “High” and “Low,” respectively) in an assay buffer containing 20 mM HEPES pH 7.5, 150 mM NaCl, 0.01% Triton X-100, 0.01% BSA and 0.5 mM TCEP in the presence of a candidate compound in 1% DMSO (final concentration) for one hour. After incubation in the presence of the candidate compound, the plate was incubated for an additional one hour in the presence of an approximate EC40 binding saturation consisting of 150 nM fluorescently-labeled inhibitor probe and 2 nM Streptavidin-Terbium (Cisbio) (final concentrations). Following the one hour incubation, the plates were read for TR-FRET signal at […] using an Envision plate reader (Perkin Elmer).
as §3

[5] = tested on: primary human total T-cells; assay: T-cell activation, IL-2 secretion, Biological Example 13; type: cell-based; conditions: 48 hours, fold change over baseline, Table 8; for IL-2 secretion CD3/CD28 0.3 μM / IL-2 secretion CD3/CD28 1 μM: anti-CD3 and anti-CD28 co-stimulation; for IL-2 secretion CD3/CD28 0.3 μM: 0.3 μM inhibitor; for IL-2 secretion CD3/CD28 1 μM / IL-2 secretion CD3 1 μM: 1 μM inhibitor; for IL-2 secretion CD3 1 μM / IL-2 secretion CD3 3 μM: anti-CD3 stimulation alone; for IL-2 secretion CD3 3 μM: 3 μM inhibitor
[6] = tested on: primary human total T-cells; assay: T-cell activation, CD25 surface staining, Biological Example 2; type: cell-based; conditions: 48 hours, fold change over baseline; for fold induction at 0.3 µM: 0.3 μM inhibitor; for fold induction at 1 µM: 1 μM inhibitor; for fold induction at 3 µM: 3 μM inhibitor
[7] = tested on: primary human total T-cells; assay: T-cell activation, IL-2 secretion, Biological Example 9; type: cell-based; conditions: 48 hours, fold change over baseline, Table 5; for IL-2 secretion CD3/CD28 0.3 μM / IL-2 secretion CD3/CD28 1 μM: anti-CD3 and anti-CD28 co-stimulation; for IL-2 secretion CD3/CD28 0.3 μM: 0.3 μM inhibitor; for IL-2 secretion CD3/CD28 1 μM / IL-2 secretion CD3 1 μM: 1 μM inhibitor; for IL-2 secretion CD3 1 μM / IL-2 secretion CD3 3 μM: anti-CD3 stimulation alone; for IL-2 secretion CD3 3 μM: 3 μM inhibitor
[8] = anti-CD3 and anti-CD28 co-stimulation
[9] = anti-CD3 and anti-CD28 co-stimulation, read-out: IL-2 secretion CD3/CD28 1 μM
[10] = anti-CD3 stimulation alone, read-out: IL-2 secretion CD3 1 μM
[11] = 0.125 nM Cbl-b final concentration (Low), read-out: Cbl-b activity IC50 (Low)
[12] = read-out: IC50 values in the Cbl-b inhibition assay of Biological Example 1
[13] = anti-CD3 and anti-CD28 co-stimulation, read-out: CD25 staining CD3/CD28 1 μM
[14] = anti-CD3 stimulation alone, read-out: CD25 staining CD3 1 μM

T1 sequence (Q13191 36-427): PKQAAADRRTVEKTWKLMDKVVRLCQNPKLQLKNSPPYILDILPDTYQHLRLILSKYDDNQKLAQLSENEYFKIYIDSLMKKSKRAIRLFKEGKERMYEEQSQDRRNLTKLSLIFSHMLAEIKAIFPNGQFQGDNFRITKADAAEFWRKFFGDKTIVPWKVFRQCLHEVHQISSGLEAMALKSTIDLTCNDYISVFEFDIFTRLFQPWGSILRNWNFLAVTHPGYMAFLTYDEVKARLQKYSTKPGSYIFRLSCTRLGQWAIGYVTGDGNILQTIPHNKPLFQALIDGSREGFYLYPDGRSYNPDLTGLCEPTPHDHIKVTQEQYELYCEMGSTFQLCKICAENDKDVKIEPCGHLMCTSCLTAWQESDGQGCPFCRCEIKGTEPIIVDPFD

| SMILES | fold induction at 0.3 µM [1, 8] | fold induction at 1 µM [1, 9] | fold induction at 1 µM [1, 10] | fold induction at 3 µM ([1]; anti-CD3 stimulation alone) | IC50 (Cbl-b [2]) [nM] | IC50 (Cbl-b [3]; [11]) [nM] | IC50 (Cbl-b [4]) [nM] | IL-2 secretion CD3/CD28 0.3 μM [5] | IL-2 secretion CD3/CD28 1 μM [5] | IL-2 secretion CD3 1 μM [5] | IL-2 secretion CD3 3 μM [5] | fold induction at 0.3 µM [6, 8] | fold induction at 1 µM [6, 13] | fold induction at 1 µM [6, 14] | fold induction at 3 µM ([6]; anti-CD3 stimulation alone) | IL-2 secretion CD3/CD28 0.3 μM [7] | IL-2 secretion CD3/CD28 1 μM [7] | IL-2 secretion CD3 1 μM [7] | IL-2 secretion CD3 3 μM [7] | further results |
| --- | --- | --- | --- | --- | --- | --- | --- | --- | --- | --- | --- | --- | --- | --- | --- | --- | --- | --- | --- | --- |
| Cn1cnnc1C[C@]1(c2cccc(N3Cc4c(cc(CN5CCC6(CC6)C5)cc4C(F)(F)F)C3=O)c2)C[C@H](C#N)C1 [Compound 4, (1r,3r)-3-(3-(6-((5-azaspiro[2.4]heptan-5-yl)methyl)-1-oxo-4-(trifluoromethyl)isoindolin-2-yl)phenyl)-3-((4-methyl-4H-1,2,4-triazol-3-yl)methyl)cyclobutane-1-carbonitrile] | ≤ 15 | 15 to 20 | 0.4 to 0.85 | 0.4 to 0.85 | 1 to 5 | 1 to 2 | 1 to 5 | A (A indicates >15 fold) | A (A indicates >15 fold) | A (A indicates >0.66 fold) | A (A indicates >0.66 fold) | 1.24 to 1.39 | 1.24 to 1.39 | > 1.15 | > 1.15 | A (A indicates >15 fold) | A (A indicates >15 fold) | A (A indicates >0.66 fold) | A (A indicates >0.66 fold) | IC50 (Cbl-b [3]; [12]): 1 to 2 nM |
| C[C@@H]1CN(Cc2cc3c(c(C(F)(F)F)c2)CN(c2cccc([C@]4(Cc5nncn5C)C[C@@H](C#N)C4)c2)C3=O)CCC1(F)F [Compound 11, (1R,3r)-3-(3-(6-(((R)-4,4-difluoro-3-methylpiperidin-1-yl)methyl)-1-oxo-4-(trifluoromethyl)isoindolin-2-yl)phenyl)-3-((4-methyl-4H-1,2,4-triazol-3-yl)methyl)cyclobutane-1-carbonitrile] | > 20 | > 20 | > 0.85 | > 0.85 | 1 to 5 | 1 to 2 | 1 to 5 | A (A indicates >15 fold) | A (A indicates >15 fold) | A (A indicates >0.66 fold) | A (A indicates >0.66 fold) | 1.24 to 1.39 | 1.24 to 1.39 | 1 to 1.15 | ≤ 1 | A (A indicates >15 fold) | A (A indicates >15 fold) | A (A indicates >0.66 fold) | A (A indicates >0.66 fold) | IC50 (Cbl-b [3]; [12]): 1 to 2 nM |
| C[C@H]1CCCN(Cc2cc3c(c(C(F)(F)F)c2)CN(c2cccc([C@]4(Cc5nncn5C)C[C@@H](C#N)C4)c2)C3=O)C1 [Compound 19, (1R,3r)-3-((4-methyl-4H-1,2,4-triazol-3-yl)methyl)-3-(3-(6-(((S)-3-methylpiperidin-1-yl)methyl)-1-oxo-4-(trifluoromethyl)isoindolin-2-yl)phenyl)cyclobutane-1-carbonitrile] | > 20 | > 20 | > 0.85 | > 0.85 | < 1 | < 1 | < 1 | A (A indicates >15 fold) | A (A indicates >15 fold) | A (A indicates >0.66 fold) | A (A indicates >0.66 fold) | > 1.39 | > 1.39 | > 1.15 | > 1.15 | A (A indicates >15 fold) | A (A indicates >15 fold) | A (A indicates >0.66 fold) | A (A indicates >0.66 fold) | – |
| Cn1cnnc1C[C@]1(c2cccc(NC(=O)c3cc(CN4CCC5(CC5)C4)cc(C4CC4)n3)c2)C[C@H](C#N)C1 [Compound 53, 4-((5-azaspiro[2.4]heptan-5-yl)methyl)-N-(3-((1r,3r)-3-cyano-1-((4-methyl-4H-1,2,4-triazol-3-yl)methyl)cyclobutyl)phenyl)-6-cyclopropylpicolinamide] | 15 to 20 | 15 to 20 | 0.4 to 0.85 | 0.4 to 0.85 | – | – | – | – | – | – | – | ≤ 1.24 | ≤ 1.24 | 1 to 1.15 | 1 to 1.15 | – | – | – | – | IC50 (Cbl-b [3]; 0.5 nM Cbl-b final concentration (High), read-out: Cbl-b activity IC50 (High)): < 1 nM |
| C[C@@H]1C[C@H](C)CN(Cc2cc(C(=O)Nc3cccc([C@]4(Cc5nncn5C)C[C@@H](C#N)C4)c3)nc(C3CC3)c2)C1 [Compound 54] | > 20 | > 20 | > 0.85 | > 0.85 | – | < 1 | – | – | – | – | – | 1.24 to 1.39 | 1.24 to 1.39 | ≤ 1 | ≤ 1 | – | – | – | – | – |
| C[C@H]1CCCN(Cc2cc(C(=O)Nc3cccc([C@]4(Cc5nncn5C)C[C@@H](C#N)C4)c3)nc(C3CC3)c2)C1 [Compound 55, N-(3-((1r,3S)-3-cyano-1-((4-methyl-4H-1,2,4-triazol-3-yl)methyl)cyclobutyl)phenyl)-6-cyclopropyl-4-(((S)-3-methylpiperidin-1-yl)methyl)picolinamide] | > 20 | > 20 | > 0.85 | > 0.85 | – | < 1 | – | – | – | – | – | 1.24 to 1.39 | 1.24 to 1.39 | ≤ 1 | ≤ 1 | – | – | – | – | – |
| C[C@@H]1CN(Cc2cc(C(=O)Nc3cccc([C@]4(Cc5nncn5C)C[C@@H](C#N)C4)c3)nc(C3CC3)n2)CCC1(F)F [Compound 57, N-(3-((1r,3R)-3-cyano-1-((4-methyl-4H-1,2,4-triazol-3-yl)methyl)cyclobutyl)phenyl)-2-cyclopropyl-6-(((R)-4,4-difluoro-3-methylpiperidin-1-yl)methyl)pyrimidine-4-carboxamide] | 15 to 20 | > 20 | 0.4 to 0.85 | > 0.85 | – | < 1 | – | – | – | – | – | 1.24 to 1.39 | 1.24 to 1.39 | 1 to 1.15 | ≤ 1 | – | – | – | – | – |

Reference: patent publication US11530229B2, “Cyano cyclobutyl compounds for CBL-B inhibition and uses thereof” (Nurix Therapeutics, Inc., priority 2019, dated 2022)
